Reference: patent US8343539B2, “Compounds that bind α5β1 integrin and methods of use” (Regents of the University of Minnesota, priority 2006, dated 2013)
Entries after “also recorded” stand apart in the source; their conditions may differ. Where no end group is shown, it is not given here. (C16)2 = not defined here

Columns and labels:
integrin α5β1 = molecular target: T1, integrin α5β1 (Homo sapiens, UniProt P05556+P08648); experiment: Adhesion blocking with anti-integrin α5β1 antibody (JBS5); assay type: cell-based; conditions: 1 hour
T1 construct: endogenous in cells; host or cells: HUVEC (human umbilical vein endothelial cells)
Protocol: Adhesion blocking experiments: Blocking experiments were done using mouse anti-human integrin […] (P1D6), β1 (P5D2), α5β1 (JBS5), and αvβ3 (LM609) monoclonal antibodies (Chemicon Int.). All surfaces were transferred to 24- or 12-well plates and pre-incubated in 0.1% BSA media as described above. HUVECs were prepared and counted as described in the cell adhesion protocol. Cells were blocked by mixing the cell suspension with the appropriate antibody in 0.1% BSA media, and incubating for 30 minutes at 37° C., 5% CO2 with constant agitation. Blocked cells were then released onto LB and FN surfaces and allowed to adhere for 1 hour at 37° C., 5% CO2. For all blocking experiments, cells were seeded at 249 cells/mm^2 (lower seeding density was used here to reduce the amount of antibodies needed to block cell adhesion) and a final antibody concentration in each well was 20 μg/ml. Following incubation, surfaces were washed, and adhered cells were quantified as described in the cell adhesion protocol.

HUVECs [1] = experiment: Actin cytoskeleton and focal adhesion staining; assay type: cell-based, human; conditions: 1-72 hours
Protocol: Actin cytoskeleton and focal adhesion staining: Surface transferring, cell seeding, incubation, and fixing were done as described above. Staining for the actin cytoskeleton, focal adhesions, and nucleus of attached cells was done using the Actin Cytoskeleton and Focal Adhesion Staining Kit following the manufacturer's protocol (Chemicon Int.) and using 1:350 dilution for anti-vinculin antibody, 1:200 for the secondary antibody, approximately 1:1000 dilution (equivalent to 1 unit/surface) for TRITC-conjugated phalloidin and 1:1000 for DAPI. After washing, surfaces were mounted onto glass slides and stored at 4° C. protected from light. A confocal microscope (BIORAD Multiphoton Confocal 1024) was used for imaging.

HUVECs [2] = experiment: Fibronectin production staining (Example 2); assay type: cell-based, human; conditions: 12 hours
Protocol: Fibronectin production staining: Surface preparation, transfer, and cellular work were all done as described in the previous methods. Only surfaces incubated with cells for 12 hours were stained. The staining protocol, involving a primary antibody for secreted fibronectin (Chemicon), a FITC-conjugated secondary antibody (Chemicon), and the Image-iT LIVE plasma membrane and nuclear labeling kit (Molecular Probes), was done as previously described in Example 1. A single photon confocal microscope (Olympus FluoView FV1000) was used for imaging. Two slides per substrate were prepared each during 2 separate experiments and each slide was imaged 2-4 times. The final images chosen were all taken from one experiment for consistency, but were representative of the images obtained from both experiments.

CT26.WT cells = experiment: Blocking of liposome binding with free PR_b peptide-amphiphile (flow cytometry); assay type: cell-based, mouse; conditions: free peptide-amphiphile 200 μg/ml, 1 hr pre-incubation, 4° C.
Protocol: Flow cytometry: CT26.WT confluent cell monolayers were trypsinized (0.25% Trypsin+0.1% EDTA) and resuspended in ice-cold FB (fluorescent buffer: phosphate buffered saline (PBS) supplemented with 0.02% sodium azide and 2.5% fetal bovine serum) containing liposomes at a lipid concentration of 250 μM and a cell concentration of 1 million/ml in 15 ml centrifuge tubes. Tubes were incubated at 4° C. or 37° C. over a rotary shaker for the specified duration of time. Cells were then pelleted and washed twice in FB. Flow cytometric analysis was carried out immediately. For peptide blocking experiments, the protocol specified above was used except cells were incubated with 200 μg/ml of free peptide-amphiphile in FB for one hour prior to incubating the cells with the liposomes. For integrin α5β1 expression studies, CT26.WT confluent cell monolayers were trypsinized (0.25% Trypsin+0.1% EDTA) and resuspended in ice-cold FB at a cell concentration of 1 million/ml in 15 ml centrifuge tubes. Tubes were incubated at 4° C. with primary antibody (anti-integrin α5β1) or goat isotype control (goat IgG) over a rotary shaker for 35 min. Cells were then pelleted and washed twice in FB and then incubated again with the secondary antibody (anti-goat IgG FITC conjugated) for 35 min. Finally, cells were pelleted and washed twice. Flow cytometric analysis was carried out immediately. […]

T1 sequence (P08648 42-894 limits assumed): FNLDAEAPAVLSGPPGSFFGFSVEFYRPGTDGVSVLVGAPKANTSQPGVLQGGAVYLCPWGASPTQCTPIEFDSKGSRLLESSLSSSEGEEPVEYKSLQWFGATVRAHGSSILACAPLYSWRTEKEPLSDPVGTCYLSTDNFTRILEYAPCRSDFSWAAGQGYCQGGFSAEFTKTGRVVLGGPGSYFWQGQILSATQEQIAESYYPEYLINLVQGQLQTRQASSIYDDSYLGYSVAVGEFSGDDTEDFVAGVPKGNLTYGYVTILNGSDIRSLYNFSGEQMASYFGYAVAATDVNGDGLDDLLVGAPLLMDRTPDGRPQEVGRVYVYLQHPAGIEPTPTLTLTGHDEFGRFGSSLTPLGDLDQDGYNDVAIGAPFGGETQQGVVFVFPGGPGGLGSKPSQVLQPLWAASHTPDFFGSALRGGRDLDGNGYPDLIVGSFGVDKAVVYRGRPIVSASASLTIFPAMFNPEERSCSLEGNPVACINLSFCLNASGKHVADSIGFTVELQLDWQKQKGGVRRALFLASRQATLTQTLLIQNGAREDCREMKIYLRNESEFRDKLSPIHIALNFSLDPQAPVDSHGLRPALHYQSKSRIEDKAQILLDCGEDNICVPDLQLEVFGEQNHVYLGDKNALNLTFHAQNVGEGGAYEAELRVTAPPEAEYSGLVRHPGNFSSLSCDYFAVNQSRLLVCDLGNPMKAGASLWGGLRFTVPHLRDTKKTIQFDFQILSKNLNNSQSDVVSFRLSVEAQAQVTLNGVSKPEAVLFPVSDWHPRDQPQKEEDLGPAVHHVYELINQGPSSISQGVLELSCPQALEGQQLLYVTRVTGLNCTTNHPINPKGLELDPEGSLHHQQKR
T1 sequence (P08648 895-1049 partner limits assumed): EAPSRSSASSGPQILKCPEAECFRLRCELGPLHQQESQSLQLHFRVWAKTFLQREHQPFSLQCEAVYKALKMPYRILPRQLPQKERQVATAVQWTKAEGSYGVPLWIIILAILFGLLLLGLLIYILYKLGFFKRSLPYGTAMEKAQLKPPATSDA
T1 sequence (P05556 21-798): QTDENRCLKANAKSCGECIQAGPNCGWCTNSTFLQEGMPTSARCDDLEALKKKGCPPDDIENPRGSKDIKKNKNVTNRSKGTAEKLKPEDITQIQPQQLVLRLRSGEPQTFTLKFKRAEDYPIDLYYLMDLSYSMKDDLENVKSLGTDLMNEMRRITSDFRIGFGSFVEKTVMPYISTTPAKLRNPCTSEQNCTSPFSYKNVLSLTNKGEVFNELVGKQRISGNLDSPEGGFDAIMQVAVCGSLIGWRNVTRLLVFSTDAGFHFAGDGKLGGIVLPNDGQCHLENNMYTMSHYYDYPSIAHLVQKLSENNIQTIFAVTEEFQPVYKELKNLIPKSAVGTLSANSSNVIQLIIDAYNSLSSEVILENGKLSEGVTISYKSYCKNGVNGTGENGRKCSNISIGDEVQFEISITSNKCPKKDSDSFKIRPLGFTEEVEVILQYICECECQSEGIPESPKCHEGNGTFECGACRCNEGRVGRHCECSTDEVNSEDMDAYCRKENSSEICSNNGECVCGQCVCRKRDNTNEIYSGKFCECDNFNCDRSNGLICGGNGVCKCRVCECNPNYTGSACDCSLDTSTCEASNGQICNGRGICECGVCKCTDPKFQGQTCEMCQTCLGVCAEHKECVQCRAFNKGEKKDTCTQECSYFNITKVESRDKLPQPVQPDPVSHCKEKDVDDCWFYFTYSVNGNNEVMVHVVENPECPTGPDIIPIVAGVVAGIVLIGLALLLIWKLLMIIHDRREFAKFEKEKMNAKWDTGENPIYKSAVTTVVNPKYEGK

Substance: (C16)2-Glu-C2-KSSPHSRNSGSGSGSGSGRGDSP ({(C16)2-Glu-C2}-KSSPHSRNSGSGSGSGSGRGDSP; not fully specified; reading uncertain) [PR_b]
- reduction in cell adhesion compared to adhesion of non-blocked cells (integrin α5β1; anti-α5β1 antibody 20 μg/ml, HUVECs 249 cells/mm^2): 77.55±1.50%
- Integrin mediating HUVEC adhesion to the surface (integrin α5β1; antibody blocking): α5β1-mediated; also recorded: specific for α5β1 integrins
- Actin stress fibers and focal contacts (HUVECs [1]): displayed actin stress fibers and focal contacts
- Cytoskeletal organization and focal adhesion compared to FN (HUVECs [1]): better-developed cytoskeletal structure compared to FN; also recorded: stronger cytoskeletal organization and focal adhesion formation
- Fibronectin (ECM) production by adhered HUVECs (HUVECs [2]): good fibronectin production
- Blocking of binding of PR_b and GRGDSP targeted stealth liposomes (low PEG2000) to CT26.WT cells (CT26.WT cells): completely blocks the binding; also recorded: completely blocked
